Values quoted from earlier work, collected in article PMC12123727 (BMC Cancer, 2025).

Assays:
DLBCL = settings: patients with DLBCL, 2/19; cited from earlier work
r/r FL = settings: patients with r/r FL, cited from earlier work

In the case of `O=C(/C=C/c1cccc(S(=O)(=O)Nc2ccccc2)c1)NO` [Belinostat, belinostat], the ORR (DLBCL) is given as 10.5%.

For `O=C(CCCCCCC(=O)Nc1ccccc1)NO` [Vorinostat, vorinostat], the “objective response rate (ORR)” value (r/r FL; 19/39) is given as 49% and the “median PFS” value (r/r FL) is given as 20 months.
